Consider 24 compounds from ChEMBL document CHEMBL1155533, “Substituted 2H-isoquinolin-1-ones as potent Rho-kinase inhibitors: part 3, aryl substituted pyrrolidines” (Bioorg Med Chem Lett, 2010).

SMILES strings stand for the structures.

The target in data set [1] is Rho-associated protein kinase 2 (Homo sapiens, UniProt O75116). Kind of data set: Inhibition of ROCK2 by luciferase based ATP detection assay.
In a further data set the test system is Aorta. Put plainly: Vasorelaxant activity in rat aortic ring assessed as inhibition of phenylephrine-induced contraction. In kind it is functional, tissue-based.
Another data set is described as follows: in vitro. To be noted: human.
Data set [2] deals with T1, cGMP-dependent protein kinase 2 (Homo sapiens, UniProt Q13237).
T1 sequence (Q13237 whole entry): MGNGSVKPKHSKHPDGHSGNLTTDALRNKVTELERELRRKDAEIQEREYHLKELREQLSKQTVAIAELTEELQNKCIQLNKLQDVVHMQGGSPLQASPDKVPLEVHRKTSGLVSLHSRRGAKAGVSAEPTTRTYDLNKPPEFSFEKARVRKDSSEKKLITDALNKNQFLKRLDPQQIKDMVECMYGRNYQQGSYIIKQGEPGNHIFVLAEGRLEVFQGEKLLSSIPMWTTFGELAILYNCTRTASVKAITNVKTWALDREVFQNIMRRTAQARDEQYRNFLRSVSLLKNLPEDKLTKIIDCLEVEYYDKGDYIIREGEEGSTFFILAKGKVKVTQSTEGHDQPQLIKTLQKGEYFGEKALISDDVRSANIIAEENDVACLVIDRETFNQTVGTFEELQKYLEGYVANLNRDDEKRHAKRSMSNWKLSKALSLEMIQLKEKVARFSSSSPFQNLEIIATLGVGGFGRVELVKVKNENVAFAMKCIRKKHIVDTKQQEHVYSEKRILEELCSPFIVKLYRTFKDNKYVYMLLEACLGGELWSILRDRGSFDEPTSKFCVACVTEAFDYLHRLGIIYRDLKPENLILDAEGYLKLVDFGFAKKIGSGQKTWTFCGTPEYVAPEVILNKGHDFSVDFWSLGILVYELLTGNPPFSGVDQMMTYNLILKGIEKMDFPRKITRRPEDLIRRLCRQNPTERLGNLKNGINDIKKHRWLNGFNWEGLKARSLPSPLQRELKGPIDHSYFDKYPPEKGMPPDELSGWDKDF
Kind of data set: Inhibition of PRKG2.

In data set [3] the target is Serine/threonine-protein kinase N2 (Homo sapiens, UniProt Q16513). Kind of data set: Inhibition of PRKCL2.
Data set [4] addresses T2, Protein kinase C epsilon type (Homo sapiens, UniProt Q02156).
T2 sequence (Q02156 whole entry): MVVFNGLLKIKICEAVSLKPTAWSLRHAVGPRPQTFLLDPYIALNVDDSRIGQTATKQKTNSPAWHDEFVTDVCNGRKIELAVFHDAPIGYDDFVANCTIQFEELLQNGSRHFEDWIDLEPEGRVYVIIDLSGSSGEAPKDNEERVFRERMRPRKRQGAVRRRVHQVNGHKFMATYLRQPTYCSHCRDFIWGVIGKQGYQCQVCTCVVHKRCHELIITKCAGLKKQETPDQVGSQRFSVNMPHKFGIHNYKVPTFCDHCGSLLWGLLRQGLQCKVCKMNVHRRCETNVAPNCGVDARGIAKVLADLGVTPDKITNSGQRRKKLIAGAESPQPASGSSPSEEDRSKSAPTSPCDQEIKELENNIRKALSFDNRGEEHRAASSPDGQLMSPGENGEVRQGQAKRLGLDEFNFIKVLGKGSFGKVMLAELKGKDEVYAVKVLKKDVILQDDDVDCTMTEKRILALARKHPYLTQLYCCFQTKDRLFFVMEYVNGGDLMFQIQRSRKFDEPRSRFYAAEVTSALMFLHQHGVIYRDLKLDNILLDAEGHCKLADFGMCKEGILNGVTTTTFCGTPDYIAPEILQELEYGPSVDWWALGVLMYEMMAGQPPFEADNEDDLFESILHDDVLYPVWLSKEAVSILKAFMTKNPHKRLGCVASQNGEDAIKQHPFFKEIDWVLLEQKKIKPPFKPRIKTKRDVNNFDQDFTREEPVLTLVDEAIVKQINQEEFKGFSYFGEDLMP
Put plainly: Inhibition of PRKCE.

Rho-associated protein kinase 2, sequence (O75116 whole entry): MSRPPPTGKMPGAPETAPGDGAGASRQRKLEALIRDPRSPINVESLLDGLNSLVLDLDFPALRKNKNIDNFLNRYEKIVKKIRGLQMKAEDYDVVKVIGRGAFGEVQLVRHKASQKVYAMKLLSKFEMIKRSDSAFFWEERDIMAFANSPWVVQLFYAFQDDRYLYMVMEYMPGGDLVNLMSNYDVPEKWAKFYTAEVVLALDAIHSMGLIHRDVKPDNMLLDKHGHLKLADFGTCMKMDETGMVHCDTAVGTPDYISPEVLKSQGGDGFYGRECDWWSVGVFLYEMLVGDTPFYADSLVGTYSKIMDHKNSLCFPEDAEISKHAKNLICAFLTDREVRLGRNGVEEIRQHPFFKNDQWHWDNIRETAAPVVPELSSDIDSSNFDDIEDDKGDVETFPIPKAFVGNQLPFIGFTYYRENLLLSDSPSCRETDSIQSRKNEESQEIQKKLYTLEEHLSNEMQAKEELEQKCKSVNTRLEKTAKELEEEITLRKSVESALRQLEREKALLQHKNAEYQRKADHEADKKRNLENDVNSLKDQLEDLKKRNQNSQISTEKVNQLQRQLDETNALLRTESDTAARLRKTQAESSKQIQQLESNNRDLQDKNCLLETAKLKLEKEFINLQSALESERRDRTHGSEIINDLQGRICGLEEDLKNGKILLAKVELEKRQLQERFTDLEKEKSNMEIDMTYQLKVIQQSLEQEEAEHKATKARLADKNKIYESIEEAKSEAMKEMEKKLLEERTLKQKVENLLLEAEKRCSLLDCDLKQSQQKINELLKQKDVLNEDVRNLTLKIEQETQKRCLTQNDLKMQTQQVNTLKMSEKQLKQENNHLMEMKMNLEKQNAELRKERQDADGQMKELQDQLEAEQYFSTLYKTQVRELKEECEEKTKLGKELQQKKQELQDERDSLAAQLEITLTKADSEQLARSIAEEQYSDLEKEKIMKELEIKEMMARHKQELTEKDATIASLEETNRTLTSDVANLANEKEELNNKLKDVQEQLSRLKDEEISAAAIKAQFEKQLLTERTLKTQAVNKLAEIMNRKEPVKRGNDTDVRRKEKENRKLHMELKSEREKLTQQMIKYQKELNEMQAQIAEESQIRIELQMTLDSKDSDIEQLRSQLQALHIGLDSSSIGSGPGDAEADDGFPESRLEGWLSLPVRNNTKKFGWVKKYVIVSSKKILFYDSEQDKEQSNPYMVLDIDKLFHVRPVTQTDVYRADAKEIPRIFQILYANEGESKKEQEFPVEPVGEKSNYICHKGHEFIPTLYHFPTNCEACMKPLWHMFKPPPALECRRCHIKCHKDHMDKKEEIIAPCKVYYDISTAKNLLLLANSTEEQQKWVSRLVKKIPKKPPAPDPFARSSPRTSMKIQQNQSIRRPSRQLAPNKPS
Serine/threonine-protein kinase N2, sequence (Q16513 whole entry): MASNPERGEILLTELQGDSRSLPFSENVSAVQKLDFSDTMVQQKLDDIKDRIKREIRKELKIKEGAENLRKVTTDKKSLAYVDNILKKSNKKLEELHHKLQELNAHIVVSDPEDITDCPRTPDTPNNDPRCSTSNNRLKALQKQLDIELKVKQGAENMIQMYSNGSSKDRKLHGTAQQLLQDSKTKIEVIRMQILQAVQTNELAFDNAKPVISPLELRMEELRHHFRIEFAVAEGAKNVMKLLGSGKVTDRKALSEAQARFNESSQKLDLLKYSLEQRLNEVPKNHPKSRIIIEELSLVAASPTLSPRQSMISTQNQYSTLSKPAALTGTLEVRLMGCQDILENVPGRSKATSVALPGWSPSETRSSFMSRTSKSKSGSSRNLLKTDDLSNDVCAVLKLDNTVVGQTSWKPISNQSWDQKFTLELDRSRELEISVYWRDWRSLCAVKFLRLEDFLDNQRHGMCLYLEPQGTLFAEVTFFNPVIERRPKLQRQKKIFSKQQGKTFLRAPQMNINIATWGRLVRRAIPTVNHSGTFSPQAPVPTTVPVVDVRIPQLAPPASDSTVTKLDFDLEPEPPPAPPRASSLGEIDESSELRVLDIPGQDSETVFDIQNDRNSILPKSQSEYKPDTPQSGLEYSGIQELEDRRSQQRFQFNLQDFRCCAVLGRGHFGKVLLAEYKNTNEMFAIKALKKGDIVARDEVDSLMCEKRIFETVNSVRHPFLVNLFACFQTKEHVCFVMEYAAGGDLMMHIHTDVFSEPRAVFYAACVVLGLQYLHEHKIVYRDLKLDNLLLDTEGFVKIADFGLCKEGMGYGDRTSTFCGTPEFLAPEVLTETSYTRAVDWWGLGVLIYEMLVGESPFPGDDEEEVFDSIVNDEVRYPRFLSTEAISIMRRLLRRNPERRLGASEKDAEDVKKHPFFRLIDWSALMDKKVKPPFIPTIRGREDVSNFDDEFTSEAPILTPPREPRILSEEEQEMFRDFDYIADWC

Regarding `O=C(Nc1cc2cc[nH]c(=O)c2cc1Cl)[C@@H]1CCCNC1`, the IC50 – broadly, the concentration that gives 50% inhibition – in data set [1] worked out at 47 nM. The EC50 (as a rule, the concentration that produces a half-maximal response) in the data set with Aorta amounted to 550 nM. Moreover, the half-life (commonly the time needed for the level to fall by half in the phase considered) in the data set “in vitro” (liver microsomes) stood at 71 min.

In data set [1], `O=C(Nc1cc2cc[nH]c(=O)c2cc1Cl)C1CNCC1c1cccc(C(F)(F)F)c1` (racemic) returned an IC50 of 4 nM.

Take `CNC(C(=O)Nc1cc2cc[nH]c(=O)c2cc1Cl)c1ccccc1` (centres undefined): in the data set with Aorta, the EC50 worked out at 170 nM. The compound also displayed a half-life in the data set “in vitro” (microsomes) of 15 min.

In turn, `CC(C)c1cccc(C2CNCC2C(=O)Nc2cc3cc[nH]c(=O)c3cc2Cl)c1` (racemic) came in with an IC50 in data set [1] of 6 nM.

As for `O=C(Nc1cc2cc[nH]c(=O)c2cc1Cl)[C@H]1CNC[C@@H]1c1ccc(Cl)cc1`, the EC50 with Aorta is 40 nM.

For `COc1cccc(C2CNCC2C(=O)Nc2cc3cc[nH]c(=O)c3cc2Cl)c1` (racemic), in data set [1], the concentration for half-maximal inhibition (IC50) was 4 nM. Further, in the data set with Aorta, the EC50 is 88 nM.

Take `CC(C)(C)c1cccc(C2CNCC2C(=O)Nc2cc3cc[nH]c(=O)c3cc2Cl)c1` (racemic): the IC50 in data set [1] came to 11 nM.

In data set [1], `CCc1cccc(C2CNCC2C(=O)Nc2cc3cc[nH]c(=O)c3cc2Cl)c1` (racemic) showed an IC50 of 4 nM. This IC50 lies about 2.8-fold lower than the previous one.

Regarding `O=C(Nc1cc2cc[nH]c(=O)c2cc1Cl)C1CNCC1c1ccc(Cl)cc1Cl` (racemic), the IC50 in data set [1] turned out to be 8 nM.

`O=C(Nc1cc2cc[nH]c(=O)c2cc1Cl)C1CNCCC1c1ccccc1` (racemic): in data set [1], the IC50 came to 6 nM. Moreover, the EC50 in the data set on Aorta came to 55 nM. In the data set “in vitro” (liver microsomes), the half-life was determined as 37 min.

With `O=C(Nc1cc2cc[nH]c(=O)c2cc1Cl)C1(c2ccccc2)CCNC1` (centres undefined), in data set [1], the IC50 worked out at 240 nM.

In the case of `Cc1cccc(C2CNCC2C(=O)Nc2cc3cc[nH]c(=O)c3cc2Cl)c1` (racemic), the IC50 in data set [1] is 5 nM.

Compound `O=C(Nc1cc2cc[nH]c(=O)c2cc1Cl)C1CNCC1c1cccnc1` (racemic) returned an IC50 in data set [1] of 8 nM. Also, in the data set with Aorta, the EC50 was 150 nM. Moreover, in the data set “in vitro” (microsomes), the half-life is 49 min.

Compound `O=C(Nc1cc2cc[nH]c(=O)c2cc1Cl)C1(c2ccccc2)CCNCC1` had an IC50 in data set [1] of 230 nM. This counts as sub-micromolar.

Regarding `O=C(Nc1cc2cc[nH]c(=O)c2cc1Cl)C1CNCC1c1cccc(Br)c1` (racemic), in data set [1], the IC50 was determined as 2 nM. For the same compound, the EC50 in the data set on Aorta is 63 nM. In the data set “in vitro” (liver microsomes), the half-life came out at 43 min.

In the case of `NC(C(=O)Nc1cc2cc[nH]c(=O)c2cc1Cl)c1cccc(Cl)c1` (centres undefined), in data set [1], the IC50 worked out at 15 nM.

`O=C(Nc1cc2cc[nH]c(=O)c2cc1Cl)C1CNCC1c1ccccn1` (racemic) displayed an IC50 in data set [1] of 14 nM. Besides, the EC50 in the data set on Aorta was determined as 210 nM. In addition, the half-life in “in vitro” (liver microsomes) turned out to be 58 min.

On to `O=C(Nc1cc2cc[nH]c(=O)c2cc1Cl)C1CNCC1c1ccncc1` (racemic), for which inhibition in data set [1] was half-maximal at 26 nM (IC50). Besides, the EC50 with Aorta is 66 nM.

As to `O=C(Nc1cc2cc[nH]c(=O)c2cc1Cl)C1CNCC1c1cccc(OC(F)(F)F)c1` (racemic), the IC50 in data set [1] amounted to 7 nM.

`O=C(Nc1cc2cc[nH]c(=O)c2cc1Cl)C1CNCC1c1ccc(Cl)cc1` (racemic) yielded an IC50 in data set [1] of 6 nM. Further, the EC50 in the data set on Aorta worked out at 60 nM. The half-life in the data set “in vitro” (liver microsomes) is over 300 min.

The compound `O=C(Nc1cc2cc[nH]c(=O)c2cc1Cl)C1CNCC1c1ccccc1` (racemic) showed an IC50 in data set [1] of 6 nM. In the data set with Aorta, the EC50 is 89 nM. In addition, in “in vitro” (liver microsomes), the half-life worked out at 130 min.

In data set [1], `O=C(Nc1cc2cc[nH]c(=O)c2cc1Cl)C1CNCC1c1ccc(F)cc1` (racemic) had an IC50 of 9 nM. Also, in the data set with Aorta, the EC50 was 160 nM. Also, the half-life in “in vitro” (liver microsomes) is 61 min.

Turning to `O=C(Nc1cc2cc[nH]c(=O)c2cc1Cl)[C@@H]1CNC[C@H]1c1ccc(Cl)cc1`, the IC50 in data set [1] was found to be 4 nM; in data set [2], 24 nM; in data set [3], 14 nM; in data set [4], 1000 nM. Besides, the EC50 with Aorta stood at 23 nM.

In turn, `O=C(Nc1cc2cc[nH]c(=O)c2cc1Cl)C1CNCC1c1ccc(Br)cc1` (racemic) showed an IC50 in data set [1] of 4 nM. Also, the EC50 with Aorta amounted to 140 nM. In the data set “in vitro” (microsomes), this compound returned a half-life of 238 min.
